From ChEMBL document CHEMBL1144371, “Design, synthesis, and biological evaluation of novel 4-hydroxypyrone derivatives as HIV-1 protease inhibitors” (Bioorg Med Chem Lett, 2005) come the findings set out here.

Experiment [1] concerns the target T1, Human immunodeficiency virus type 1 protease (Human immunodeficiency virus 1, UniProt Q72874). In words: Inhibitory concentration against human immunodeficiency virus 1 protease in MT-4 cells. The class given is cell-based, MT4.
Experiment [2] relates to CCRF-CEM. Put plainly: Effective concentration required to protect CEM cells from […] immunodeficiency virus (SIV) infection. The class given is functional, cell-based.
The test system of experiment [3] is CCRF-CEM. In words: Ratio of toxic concentration (TC50) to the effective concentration (EC50) (Therapeutic Index) in CEM cells. The format is functional, Homo sapiens.
The target of experiment [4] is T1, Human immunodeficiency virus type 1 protease. Put plainly: Effective concentration required to inhibit human immunodeficiency virus 1 protease in MT-4 cells. The class given is cell-based, MT4.

On to `CCC(c1ccccc1)c1c(O)c2ccccc2oc1=O` (stereo not drawn) [PHENPROCOUMON], for which, in experiment [1], the IC50 is 1 µM.

The molecule `Cc1ccc(C)c(SC2=C(O)OC3(CCCCC3)CC2=O)c1` showed an EC50 in the experiment with CCRF-CEM [2] of 3.6 µM. Further, in the experiment with CCRF-CEM [3], the TI is >28.

Consider `Cc1ccc(C)c(SC2=C(O)OC3(CCC(C(C)(C)C)CC3)CC2=O)c1` (stereo not drawn), for which a half-maximal response with CCRF-CEM [2] (EC50) required 8.3 µM. Also, in the experiment on CCRF-CEM [3], the TI is given as >12.

Turning to `CC(C)(C)C1CCC2(CC1)CC(=O)C(Sc1ccccc1)=C(O)O2` (stereo not drawn), the EC50 in the experiment with CCRF-CEM [2] was > 5 µM. Moreover, the TI in the experiment with CCRF-CEM [3] is on record as 1.

For `Cc1ccc(C)c(SC2=C(O)OC(COc3ccccc3)(c3ccccc3)CC2=O)c1` (stereo not drawn), in the experiment with CCRF-CEM [2], it took 9.2 µM to reach a half-maximal effect (EC50). The TI with CCRF-CEM [3] was 5.

With `CCCC1(Cc2cccc3ccccc23)CC(=O)C(Sc2ccccc2C)=C(O)O1` (stereo not drawn), the EC50 in the experiment with CCRF-CEM [2] came to 3.8 µM. The TI with CCRF-CEM [3] is >26.

Regarding `Cc1ccccc1SC1=C(O)OC2(CCC(C(C)(C)C)CC2)CC1=O` (stereo not drawn), in the experiment on CCRF-CEM [2], the EC50 turned out to be 6.7 µM. The TI in the experiment on CCRF-CEM [3] was found to be 8.

In turn, `Cc1ccc(C(C)(C)C)c(SC2=C(O)OC(CCc3ccccc3)(C(C)C)CC2=O)c1` (stereo not drawn) registered an EC50 in experiment [4] of 15 µM. This molecule also returned an IC50 in experiment [1] of 0.0011 µM.

`CCCC1(Cc2cccc3ccccc23)CC(=O)C(Sc2cc(C)ccc2C)=C(O)O1` (stereo not drawn) returned an EC50 in the experiment with CCRF-CEM [2] of 4.6 µM. Moreover, in the experiment with CCRF-CEM [3], the TI came out at 11.

Consider `CCCC1(Cc2cccc3ccccc23)CC(=O)C(Sc2ccccc2)=C(O)O1` (stereo not drawn), for which the EC50 in the experiment with CCRF-CEM [2] amounted to 4.3 µM. Also, the TI in the experiment with CCRF-CEM [3] is 13.

In turn, `CCCC1(Cc2ccc3ccccc3c2)CC(=O)C(Sc2ccccc2CC)=C(O)O1` (stereo not drawn) returned an EC50 with CCRF-CEM [2] of 1.8 µM. Besides, in the experiment with CCRF-CEM [3], the TI turned out to be 34.

Molecule `CCCC1(CCc2ccccc2)CC(=O)C(Sc2ccccc2CC)=C(O)O1` (stereo not drawn) returned an EC50 with CCRF-CEM [2] of 4.1 µM. In the experiment on CCRF-CEM [3], the TI was >24.

`CCCC1(CCc2ccccc2)CC(=O)C(Sc2ccccc2)=C(O)O1` (stereo not drawn) came in with an EC50 in the experiment on CCRF-CEM [2] of 4.6 µM. In the experiment on CCRF-CEM [3], the TI is >22.

For the molecule `CCCC1(Cc2ccc3ccccc3c2)CC(=O)C(Sc2ccccc2)=C(O)O1` (stereo not drawn), in the experiment on CCRF-CEM [2], the midpoint of the response, the EC50, lay at 3.2 µM. In addition, the TI in the experiment on CCRF-CEM [3] turned out to be 10.

Molecule `CCc1ccccc1SC1=C(O)OC2(CCCCC2)CC1=O` had an EC50 with CCRF-CEM [2] of 3.9 µM. The TI in the experiment with CCRF-CEM [3] was >26.

For the molecule `CCc1ccccc1SC1=C(O)OC2(CCC(C(C)(C)C)CC2)CC1=O` (stereo not drawn), the EC50 in the experiment on CCRF-CEM [2] is 8.1 µM. Also, in the experiment on CCRF-CEM [3], the TI amounted to 3.

For the molecule `CCCC1(CCc2ccccc2)CC(=O)C(C(CC)c2ccccc2)=C(O)O1` (stereo not drawn), in experiment [1], the IC50 was found to be 0.035 µM.

In the case of `CCCC1(Cc2ccc3ccccc3c2)CC(=O)C(Sc2ccccc2C)=C(O)O1` (stereo not drawn), in the experiment on CCRF-CEM [2], the response was half-maximal at 2 µM (EC50). In addition, in the experiment with CCRF-CEM [3], the TI came out at 17.

For the molecule `CCCC1(CCc2ccccc2)CC(=O)C(Sc2cc(C)ccc2C)=C(O)O1` (stereo not drawn), the 50% effective concentration (EC50) in the experiment on CCRF-CEM [2] came to 4.3 µM. Further, the TI in the experiment with CCRF-CEM [3] is >23.

Turning to `Cc1ccccc1SC1=C(O)OC2(CCCCC2)CC1=O`, the EC50 in the experiment on CCRF-CEM [2] was found to be 3.3 µM. Also, the TI in the experiment on CCRF-CEM [3] was >30.

Take `Cc1ccccc1SC1=C(O)OC(COc2ccccc2)(c2ccccc2)CC1=O` (stereo not drawn): it took 8.2 µM to reach a half-maximal effect in the experiment on CCRF-CEM [2] (EC50). Moreover, in the experiment with CCRF-CEM [3], the TI is given as >12.

In the case of `CCCC1(Cc2ccc3ccccc3c2)CC(=O)C(Sc2cc(C)ccc2C)=C(O)O1` (stereo not drawn), in the experiment on CCRF-CEM [2], a half-maximal effect (EC50) was put at 4 µM. In the experiment on CCRF-CEM [3], the TI came to 10.

Consider `O=C1CC(COc2ccccc2)(c2ccccc2)OC(O)=C1Sc1ccccc1` (stereo not drawn), for which a half-maximal effect in the experiment on CCRF-CEM [2] (EC50) was put at 13 µM. Moreover, the TI with CCRF-CEM [3] was found to be 2.

`O=C1CC2(CCCCC2)OC(O)=C1Sc1ccccc1` displayed an EC50 in the experiment on CCRF-CEM [2] of 12.3 µM. For the same molecule, the TI in the experiment with CCRF-CEM [3] is 4.

For `CCCC1(Cc2cccc3ccccc23)CC(=O)C(Sc2ccccc2CC)=C(O)O1` (stereo not drawn), the EC50 (in experiment [4]; with CCRF-CEM [2]) was 1.7 µM throughout. The TI with CCRF-CEM [3] came to 46.

Regarding `CCCC1(CCc2ccccc2)CC(=O)C(Sc2ccccc2C)=C(O)O1` (stereo not drawn), the EC50 in the experiment with CCRF-CEM [2] came out at 3.7 µM. For the same molecule, the TI in the experiment with CCRF-CEM [3] was >27.

As to `CCc1ccccc1SC1=C(O)OC(COc2ccccc2)(c2ccccc2)CC1=O` (stereo not drawn), the EC50 with CCRF-CEM [2] came out at 5.6 µM. For the same molecule, the TI with CCRF-CEM [3] came to 8.
